Experimental findings from US8871753B2, “Macrocyclic compounds and their use as kinase inhibitors” (Incyte Corporation, priority 2008, dated 2014) are described below.

pIC50: −log10 of the molar value. Counter-ions that a name gives are not always drawn. Like-named read-outs stand apart in the source and are kept apart here.

Common to all, as to format: biochemical
The target in experiment [1] is T1, human JAK1 (a.a. 837-1142) (Homo sapiens, UniProt P23458).
T1 construct: human JAK1 (a.a. 837-1142); His tag (N); made in house; host or cells: insect cells (baculovirus)
T1 sequence (P23458 849-1154): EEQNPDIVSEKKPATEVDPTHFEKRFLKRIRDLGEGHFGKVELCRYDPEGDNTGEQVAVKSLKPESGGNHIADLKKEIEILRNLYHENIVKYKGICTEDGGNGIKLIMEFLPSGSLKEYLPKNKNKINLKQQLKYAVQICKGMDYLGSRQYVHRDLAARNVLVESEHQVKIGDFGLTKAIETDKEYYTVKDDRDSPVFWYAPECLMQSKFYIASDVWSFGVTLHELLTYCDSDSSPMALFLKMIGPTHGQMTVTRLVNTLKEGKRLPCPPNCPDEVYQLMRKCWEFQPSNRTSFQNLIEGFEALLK
As to the kind of experiment: In vitro JAK kinase assay (HTRF, phosphorylation of a biotinylated peptide), JAK1. The note with it: read-out: JAK1 IC50. In short, it runs like this: (§1)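 Kinase reactions ran at room temperature for 1 h with ATP matched per isoform (JAK1 90 μM, JAK2 30 μM, JAK3 3 μM). After an EDTA stop, the phosphorylated biotin-peptide was read by HTRF using Eu-Py20 and SA-APC after 40 min binding.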
(TR-FRET usually uses a lanthanide donor and a delayed reading to cut background.)

For experiment [2], the target named is T2, Recombinant Human Anaplastic Lymphoma Kinase (Homo sapiens, UniProt Q9UM73).
T2 construct: purchased Invitrogen, Carlsbad, Calif
T2 sequence (Q9UM73 19-1620): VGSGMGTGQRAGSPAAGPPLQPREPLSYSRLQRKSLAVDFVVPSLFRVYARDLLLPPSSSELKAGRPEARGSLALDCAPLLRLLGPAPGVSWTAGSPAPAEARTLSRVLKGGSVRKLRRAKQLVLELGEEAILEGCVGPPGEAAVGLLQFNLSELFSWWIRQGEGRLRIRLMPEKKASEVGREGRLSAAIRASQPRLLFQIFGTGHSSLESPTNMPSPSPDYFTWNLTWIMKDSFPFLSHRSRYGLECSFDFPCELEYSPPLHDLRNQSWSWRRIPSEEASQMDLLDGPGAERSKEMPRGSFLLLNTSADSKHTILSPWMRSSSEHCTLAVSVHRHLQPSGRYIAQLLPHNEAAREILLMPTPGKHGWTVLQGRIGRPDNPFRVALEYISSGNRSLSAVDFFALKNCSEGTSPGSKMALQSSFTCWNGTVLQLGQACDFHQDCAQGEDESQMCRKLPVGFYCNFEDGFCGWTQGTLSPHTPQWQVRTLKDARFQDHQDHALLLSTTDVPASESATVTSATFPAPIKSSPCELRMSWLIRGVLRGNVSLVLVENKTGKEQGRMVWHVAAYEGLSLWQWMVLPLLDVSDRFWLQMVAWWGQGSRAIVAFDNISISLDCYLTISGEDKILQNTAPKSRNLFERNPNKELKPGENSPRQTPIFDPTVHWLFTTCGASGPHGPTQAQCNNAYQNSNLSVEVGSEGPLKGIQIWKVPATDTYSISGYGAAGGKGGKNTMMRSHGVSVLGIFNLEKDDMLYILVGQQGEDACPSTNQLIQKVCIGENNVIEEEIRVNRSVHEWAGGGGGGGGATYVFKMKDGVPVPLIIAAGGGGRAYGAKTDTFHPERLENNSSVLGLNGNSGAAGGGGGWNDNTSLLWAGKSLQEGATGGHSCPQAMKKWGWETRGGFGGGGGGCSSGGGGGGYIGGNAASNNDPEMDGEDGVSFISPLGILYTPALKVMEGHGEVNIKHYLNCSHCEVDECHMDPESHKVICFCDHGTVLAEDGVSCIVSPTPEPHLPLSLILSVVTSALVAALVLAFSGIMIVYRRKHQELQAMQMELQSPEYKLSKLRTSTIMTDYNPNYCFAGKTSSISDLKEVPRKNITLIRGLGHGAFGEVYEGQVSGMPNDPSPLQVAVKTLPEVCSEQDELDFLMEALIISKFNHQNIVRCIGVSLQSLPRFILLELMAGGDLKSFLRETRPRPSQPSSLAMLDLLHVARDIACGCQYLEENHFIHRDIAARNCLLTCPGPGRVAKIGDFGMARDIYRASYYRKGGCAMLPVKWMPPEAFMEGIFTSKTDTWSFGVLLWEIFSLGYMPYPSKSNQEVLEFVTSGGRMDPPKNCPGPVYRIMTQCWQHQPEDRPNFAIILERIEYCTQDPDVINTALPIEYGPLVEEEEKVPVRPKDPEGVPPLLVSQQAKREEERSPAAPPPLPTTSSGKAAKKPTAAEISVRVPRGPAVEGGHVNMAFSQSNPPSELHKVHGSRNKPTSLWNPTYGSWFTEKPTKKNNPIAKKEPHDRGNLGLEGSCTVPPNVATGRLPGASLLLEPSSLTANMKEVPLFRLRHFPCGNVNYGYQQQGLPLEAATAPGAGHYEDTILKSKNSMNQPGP
As to the kind of experiment: ALK HTRF kinase assay. In outline:
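Biotinylated peptide substrate, recombinant human ALK; detection via europium-chelate antibody to phosphotyrosine paired with streptavidin-APC. Potency expressed as IC50 from four-parameter curve fitting.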

In experiment [3] the target is T3, human JAK3 (a.a. 781-1124) (Homo sapiens, UniProt P52333).
T3 construct: JAK3 (a.a. 781-1124); His tag (N); made in house; host or cells: insect cells (baculovirus)
T3 sequence (P52333 781-1124): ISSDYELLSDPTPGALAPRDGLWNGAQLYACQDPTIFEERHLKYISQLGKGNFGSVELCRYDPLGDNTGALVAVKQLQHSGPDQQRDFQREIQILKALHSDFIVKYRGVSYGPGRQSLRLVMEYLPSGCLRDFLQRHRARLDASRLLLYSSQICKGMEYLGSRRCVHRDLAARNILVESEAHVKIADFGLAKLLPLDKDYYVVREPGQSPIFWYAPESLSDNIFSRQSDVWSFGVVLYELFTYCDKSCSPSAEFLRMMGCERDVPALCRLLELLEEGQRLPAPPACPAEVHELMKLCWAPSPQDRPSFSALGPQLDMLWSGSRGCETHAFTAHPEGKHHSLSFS
As to the kind of experiment: In vitro JAK kinase assay (HTRF, phosphorylation of a biotinylated peptide), JAK3. In outline:
as §1

Experiment [4] concerns the target T4, human JAK2 (a.a. 828-1132) (Homo sapiens, UniProt O60674).
T4 construct: JAK2 (a.a. 828-1132); His tag (N); made in house; host or cells: insect cells (baculovirus)
As to the kind of experiment: In vitro JAK kinase assay (HTRF, phosphorylation of a biotinylated peptide), JAK2. In short, it runs like this:
as §1

The target in a further experiment is TYK2 (Homo sapiens, UniProt P29597). Put plainly: TYK2 kinase inhibition (Table A1).
Chain of TYK2 (P29597 whole entry): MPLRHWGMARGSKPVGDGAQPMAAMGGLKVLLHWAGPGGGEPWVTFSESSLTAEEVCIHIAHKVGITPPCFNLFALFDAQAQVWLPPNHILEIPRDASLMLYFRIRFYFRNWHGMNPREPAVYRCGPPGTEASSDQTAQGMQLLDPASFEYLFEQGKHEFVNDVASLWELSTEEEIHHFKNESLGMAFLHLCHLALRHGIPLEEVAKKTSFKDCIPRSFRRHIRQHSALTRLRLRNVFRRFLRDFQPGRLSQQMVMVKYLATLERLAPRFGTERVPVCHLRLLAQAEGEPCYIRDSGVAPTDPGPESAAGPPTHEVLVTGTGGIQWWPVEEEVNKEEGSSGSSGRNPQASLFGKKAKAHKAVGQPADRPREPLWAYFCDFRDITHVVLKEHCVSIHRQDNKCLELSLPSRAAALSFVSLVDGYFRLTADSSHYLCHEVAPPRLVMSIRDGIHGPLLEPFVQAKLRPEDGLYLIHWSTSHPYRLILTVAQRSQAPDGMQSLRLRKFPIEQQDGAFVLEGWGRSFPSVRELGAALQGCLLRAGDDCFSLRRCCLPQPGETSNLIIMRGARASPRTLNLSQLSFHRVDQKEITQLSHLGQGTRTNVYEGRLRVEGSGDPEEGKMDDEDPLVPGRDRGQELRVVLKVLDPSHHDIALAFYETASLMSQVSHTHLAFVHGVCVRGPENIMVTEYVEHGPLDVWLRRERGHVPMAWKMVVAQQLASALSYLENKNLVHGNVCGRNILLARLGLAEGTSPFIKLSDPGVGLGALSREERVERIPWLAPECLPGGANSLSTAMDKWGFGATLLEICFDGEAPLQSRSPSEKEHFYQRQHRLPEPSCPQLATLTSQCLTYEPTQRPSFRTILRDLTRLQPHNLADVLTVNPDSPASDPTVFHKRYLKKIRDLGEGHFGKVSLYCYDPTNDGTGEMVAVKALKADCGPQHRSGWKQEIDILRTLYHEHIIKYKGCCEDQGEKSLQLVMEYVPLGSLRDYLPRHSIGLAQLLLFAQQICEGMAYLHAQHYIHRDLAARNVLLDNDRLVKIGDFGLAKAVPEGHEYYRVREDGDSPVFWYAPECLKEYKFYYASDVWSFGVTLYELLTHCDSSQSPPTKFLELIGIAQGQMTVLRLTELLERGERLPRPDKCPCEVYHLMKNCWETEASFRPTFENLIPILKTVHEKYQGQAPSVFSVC
Setting [5] is: compound at a concentration of 500 nM or 1 mM (not specified), cells shown as percentage.
Setting [6] is: method AA1 (90 μM ATP) or AA2 (1000 μM ATP), not stated per value.
The mark [7] stands for this setting: compound at 500 nM or 1 mM, 90 μM ATP.
[8] abbreviates: method AA1 (3 μM ATP) or AA2 (1000 μM ATP), not stated per value.
Setting [9] is: method AA1 (30 μM ATP) or AA2 (1000 μM ATP), not stated per value.
[10] abbreviates: Table B1, cells without percent sign.

T4 sequence (O60674 828-1132): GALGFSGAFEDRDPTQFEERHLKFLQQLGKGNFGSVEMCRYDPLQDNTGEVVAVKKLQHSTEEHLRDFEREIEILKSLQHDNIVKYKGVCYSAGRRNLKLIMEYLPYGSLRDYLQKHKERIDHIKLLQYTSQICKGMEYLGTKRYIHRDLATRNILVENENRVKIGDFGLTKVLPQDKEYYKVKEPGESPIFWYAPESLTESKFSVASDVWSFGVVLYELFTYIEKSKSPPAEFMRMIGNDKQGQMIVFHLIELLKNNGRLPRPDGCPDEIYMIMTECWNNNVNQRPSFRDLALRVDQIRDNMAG

For the molecule `NS(=O)(=O)N1CCC(NC(=O)Nc2ccc3cc2CCc2cccc(c2)Nc2ncc(Cl)c(n2)N3)CC1` [Example B183, 4-[({[6-Chloro-2,4,8,22-tetraazatetracyclo[14.3.1.1(3,7).1(9,13)]docosa-1(20),3(22),4,6,9(21),10,12,16,18-nonaen-12-yl]amino}carbonyl)amino]piperidine-1-sulfonamide trifluoroacetate], the pIC50 (commonly the negative decadic logarithm of the IC50, by convention in mol/L) in experiment [1] (Table B1) was 8.68; in experiment [3] (Table B1) it was 7.85; in experiment [4] (Table B1) it was 9.00; against TYK2 (Table B1), 8.15. The “ALK % of inhibition at a concentration of 500 nM or 1 mM” value (from here on “ALK % of inhibition”) in experiment [2] (setting [5]) is reported as 26%.
For `Cn1ccc(C(=O)N2CC[C@H](NC(=O)Nc3ccc4cc3CCc3cncc(c3)Nc3ncc(Cl)c(n3)N4)C2)n1` [Example B272, N-[6-Chloro-2,4,8,18,22-pentaazatetracyclo[14.3.1.1(3,7).1(9,13)]docosa-1(20),3(22),4,6,9(21),10,12,16,18-nonaen-12-yl]-N′-{(3S)-1-[(1-methyl-1H-pyrazol-3-yl)carbonyl]pyrrolidin-3-yl}urea bis(trifluoroacetate)], in that order: 7.85, less than 5.00, 6.50, 6.24 and 23%.
Take `O=C(CC1CCNC1)Nc1ccc2cc1CCc1cncc(c1)Nc1ncc(Cl)c(n1)N2` (stereo not drawn) [Example A105, N-[6-Chloro-2,4,8,18,22-pentaazatetracyclo[14.3.1.1(3,7).1(9,13)]docosa-1(20),3(22),4,6,9(21),10,12,16,18-nonaen-12-yl]-2-pyrrolidin-3-ylacetamide tris(trifluoroacetate)]: the negative logarithm of the IC50 (pIC50) was 7.54 in experiment [1] (setting [6]), 6.95 in experiment [3] (setting [8]), 7.40 in experiment [4] (setting [9]) and 7.36 against TYK2. For the same molecule, the “ALK % of inhibition” value in experiment [2] (setting [7]) is given as 23%.
Regarding `COc1cc(C(=O)N2CCC(CC(=O)Nc3ccc4cc3CCc3cncc(c3)Nc3ncc(Cl)c(n3)N4)CC2)on1` [Example A215, N-[6-Chloro-2,4,8,18,22-pentaazatetracyclo[14.3.1.1(3,7).1(9,13)]docosa-1(20),3(22),4,6,9(21),10,12,16,18-nonaen-12-yl]-2-{1-[(3-methoxyisoxazol-5-yl)carbonyl]piperidin-4-yl}acetamide bis(trifluoroacetate)], the negative logarithm of the IC50 (pIC50) in experiment [1] (setting [6]) is 7.80; in experiment [3] (setting [8]) it was less than 6.70; in experiment [4] (setting [9]), 6.73; against TYK2 it was 6.80. Moreover, the “ALK % of inhibition” value in experiment [2] (setting [7]) came to 32%.
Consider `O=C(COc1ccc2cc1CCc1cccc(c1)Nc1ncc(Cl)c(n1)N2)N1CCN(C(=O)Nc2ccccc2)CC1` [Example A13, 4-({[6-Chloro-2,4,8,22-tetraazatetracyclo[14.3.1.1(3,7).1(9,13)]docosa-1(20),3(22),4,6,9(21),10,12,16,18-nonaen-12-yl]oxy}acetyl)-N-phenylpiperazine-1-carboxamide trifluoroacetate], for which the pIC50 is 9.00 in experiment [1] (setting [6]), 7.36 in experiment [3] (setting [8]), 8.59 in experiment [4] (setting [9]) and 7.38 on TYK2. In experiment [2] (setting [7]), the “ALK % of inhibition” value worked out at 20%.
On to `O=C1Cc2cccc(c2)Nc2nc(ncc2Cl)Nc2cccc(c2)N1` [Example C11, 6-Chloro-2,4,8,16,23-pentaazatetracyclo[15.3.1.1(3,7).1(9,13)]tricosa-1(21),3(23),4,6,9(22),10,12,17,19-nonaen-15-one trifluoroacetate], for which the pIC50 is less than 6.00 in experiment [1]; less than 5.00 in experiment [2]; less than 6.00 in experiment [3]; less than 6.00 in experiment [4]; less than 6.00 against TYK2.
For the molecule `O=C(Nc1ccc2cc1CCc1cccc(c1)Nc1ncc(Cl)c(n1)N2)C1CCCCC1` [Example B63, N-[6-Chloro-2,4,8,22-tetraazatetracyclo[14.3.1.1(3,7).1(9,13)]docosa-1(20), 3(22),4,6,9(21),10,12,16,18-nonaen-12-yl]cyclohexanecarboxamide trifluoroacetate], the pIC50 in experiment [1] (Table B1) is 7.74; in experiment [2] (setting [10]), 6.22; in experiment [3] (Table B1) it was 7.25; in experiment [4] (Table B1), 7.92; against TYK2 (Table B1), 7.47.
For the molecule `CN(C)C(=O)Nc1ccc2cc1CCc1cccc(c1)Nc1ncc(Cl)c(n1)N2` [Example B239, N′-[6-Chloro-2,4,8,22-tetraazatetracyclo[14.3.1.1(3,7).1(9,13)]docosa-1(20),3(22),4,6,9(21),10,12,16,18-nonaen-12-yl]-N,N-dimethylurea trifluoroacetate], the pIC50 in experiment [1] (Table B1) was 8.19; in experiment [3] (Table B1), 7.46; in experiment [4] (Table B1), 8.05; at TYK2 (Table B1), 7.62. In addition, in experiment [2] (setting [5]), the “ALK % of inhibition” value was 21%.
Turning to `O=S(=O)(Nc1cc2cc(c1)OCCSc1cccc(c1)Nc1nc(ncc1Cl)N2)c1ccccc1` [Example D68, N-[6-Chloro-17-oxa-14-thia-2,4,8,24-tetraazatetracyclo[16.3.1.1(3,7).1(9,13)]tetracosa-1(22),3(24),4,6,9(23),10,12,18,20-nonaen-20-yl]benzenesulfonamide trifluoroacetate], the negative logarithm of the IC50 (pIC50) in experiment [1] (Table D1) was 7.85; in experiment [2] (Table D1, 90 μM ATP), 6.47; in experiment [3] (Table D1), 7.44; in experiment [4] (Table D1), 8.24; at TYK2 (Table D1), 7.49.
In the same order, the values of `Cn1c(NC(=O)c2cc3cc(c2)OCCSc2cccc(c2)Nc2nc(ncc2Cl)N3)nc2ccccc21` [Example D55, 6-Chloro-N-(1-methyl-1H-benzimidazol-2-yl)-17-oxa-14-thia-2,4,8,24-tetraazatetracyclo[16.3.1.1(3,7).1(9,13)]tetracosa-1(22),3(24),4,6,9(23),10,12,18,20-nonaene-20-carboxamide bis(trifluoroacetate)] are 7.25, less than 5.00, 6.89, 7.40 and 7.06.
For the molecule `Cc1cccc(C(=O)Nc2ccc3cc2CCc2cccc(c2)Nc2ncc(Cl)c(n2)N3)c1` [Example B46, N-[6-Chloro-2,4,8,22-tetraazatetracyclo[14.3.1.1(3,7).1(9,13)]docosa-1(20), 3(22),4,6,9(21),10,12,16,18-nonaen-12-yl]-3-methylbenzamide trifluoroacetate], the negative-log IC50 (pIC50) in experiment [1] (Table B1) is 8.60; in experiment [2] (setting [10]) it was 6.48; in experiment [3] (Table B1), 8.01; in experiment [4] (Table B1), 8.64; against TYK2 (Table B1), 8.44.
For `CCS(=O)(=O)N1CCC(CC(=O)Nc2ccc3cc2CCc2cccc(c2)Nc2ncc(Cl)c(n2)N3)CC1` [Example A83, N-[6-Chloro-2,4,8,22-tetraazatetracyclo[14.3.1.1(3,7).1(9,13)]docosa-1(20),3(22),4,6,9(21),10,12,16,18-nonaen-12-yl]-2-[1-(ethylsulfonyl)piperidin-4-yl]acetamide trifluoroacetate], the pIC50 is 8.72 in experiment [1] (setting [6]), 7.92 in experiment [3] (setting [8]), 8.60 in experiment [4] (setting [9]) and 8.60 at TYK2. In experiment [2] (setting [7]), the “ALK % of inhibition” value came to 41%.
With `Clc1cnc2nc1Nc1cccc(c1)OCCc1cc(Br)cc(c1)N2` [Example D22, 19-Bromo-6-chloro-14-oxa-2,4,8,23-tetraazatetracyclo[15.3.1.1(3,7).1(9,13)]tricosa-1(21),3(23),4,6,9(22),10,12,17,19-nonaene trifluoroacetate], the negative logarithm of the IC50 (pIC50) is 8.38 in experiment [1] (Table D1); 6.31 in experiment [2] (Table D1, 90 μM ATP); 7.39 in experiment [3] (Table D1); 8.10 in experiment [4] (Table D1); 7.55 against TYK2 (Table D1).
For `Clc1cnc2nc1Nc1cccc(c1)OCCc1cccc(c1)N2` [Example D8, 6-Chloro-14-oxa-2,4,8,23-tetraazatetracyclo[15.3.1.1(3,7).1(9,13)]tricosa-1(21),3(23),4,6,9(22),10,12,17,19-nonaene trifluoroacetate], the pIC50 is 8.10 in experiment [1] (Table D1); 6.45 in experiment [2] (Table D1, 90 μM ATP); 7.89 in experiment [3] (Table D1); 8.27 in experiment [4] (Table D1); 7.72 on TYK2 (Table D1).
In the same order, the values of `O=C(Nc1cc2cc(c1)OCCSc1cccc(c1)Nc1nc(ncc1Cl)N2)c1ccc2occc2c1` [Example D61, N-[6-Chloro-17-oxa-14-thia-2,4,8,24-tetraazatetracyclo[16.3.1.1(3,7).1(9,13)]tetracosa-1(22),3(24),4,6,9(23),10,12,18,20-nonaen-20-yl]-1-benzofuran-5-carboxamide trifluoroacetate] are 7.74, less than 5.00, 7.39, 8.68 and 8.10.
